Where a SMILES comes first, the peptide text is derived from it.
Experiments:
[1] = test system: photoreceptors of RhoP23H/+ mice; assay: ONL thickness (DAPI sections, spider plot), RhoP23H/+ mice; assay type: in vivo, mouse; settings: daily eye drops 1 mg/ml P14-P19, P19, ventral retina
Method: After embedding in paraffin, 14 μm sections were collected. […] Cone photoreceptors were labeled with anti-Opsin Blue (Merck, cat. AB5407) and anti-Opsin Red/Green (Merck, cat. AB5405). […] For nuclear staining, 0.1 μg/ml DAPI was used. Slides were mounted with Mowiol 4–88 (Merck) and images acquired with a Zeiss Axio Imager A2 fluorescence microscope. To count TUNEL positive cells the RETINA Analysis Tool kit for ImageJ was used[37].
To generate spider plots, the ONL thickness was measured from images passing through the optic nerve (ON) acquired with light microscopy of the retina sections stained with H&E or images of retina sections stained with DAPI with a dorsal-ventral orientation. The ONL thickness in the entire retina sections was measured at 5 different positions from both sides of the ON using ImageJ[28]. Alternatively, for DAPI stained images, a customed macro implemented in ImageJ was used to select only the ONL.
Fig. 6 Effects of eye drops containing H105A peptide in the photoreceptors of Rho^P23H/+ mice. a Scheme of experimental design. Daily peptide eye drops (5 µl of 1 mg/ml peptide) were applied to mice starting at P14 until P19 when immunofluorescence of retinal cross sections was performed. […] Histograms show quantification of immunofluorescence intensity for BAX and BCL2 markers. Five retinas per group were analyzed, with two sections per retina. […]

[2] = test system: rod photoreceptor outer segments of RhoP23H/+ mice; assay: OS thickness labelled by rhodopsin, RhoP23H/+ mice; assay type: in vivo, mouse; settings: Fig 6e
Method: Eyes from Rho^P23H/+ mice eyes were enucleated and fixed in Davidson’s fix (8% formaldehyde (Merck, cat. F8775), 32% ethanol (Carlo Erba, cat. 414608), 10% acetic acid (Merck, cat. 695092)) over-night. After embedding in paraffin, 14 μm sections were collected. For TUNEL, sections were treated with […] Citrate Buffer pH 6 (10 mM Tri-sodium citrate (Carlo Erba, cat. 368007)), 0.2 mM citric acid (Merck, cat: 251275) in microwave for 5 min, then labeling was performed for one h at 37 °C using the In Situ Cell Death Detection Kit (Merck, cat. 12156792910). Rod photoreceptors were labeled with anti-RHO 1D4 antibody followed by Alexa Fluor 568 anti-mouse secondary antibody. Cone photoreceptors were labeled with anti-Opsin Blue (Merck, cat. AB5407) and anti-Opsin Red/Green (Merck, cat. AB5405). GFP localization in control transduced retinas was identified with specific anti-GFP antibody and Alexa Fluor 488 anti-mouse secondary antibody. Microglial cell labeling was performed using anti-Iba1 antibody (Wako, cat. 019-19741). For nuclear staining, 0.1 μg/ml DAPI was used. Slides were mounted with Mowiol 4–88 (Merck) and images acquired with a Zeiss Axio Imager A2 fluorescence microscope. To count TUNEL positive cells the RETINA Analysis Tool kit for ImageJ was used[37].
Fig. 6 Effects of eye drops containing H105A peptide in the photoreceptors of Rho^P23H/+ mice. a Scheme of experimental design. Daily peptide eye drops (5 µl of 1 mg/ml peptide) were applied to mice starting at P14 until P19 when immunofluorescence of retinal cross sections was performed. The contralateral control eyes were treated with vehicle HBSS. RE and LE refer to the right and left eyes, respectively. b Immunostaining was performed with antibodies against BAX or BCL2 (green), and DAPI (blue). Histograms show quantification of immunofluorescence intensity for BAX and BCL2 markers. […] Each individual data point represents the average of five (n = 5) retinas ± SD, with statistical significance determined between H105A and vehicle by paired t-test (****p < 0.0001). […] Statistical significance between H105A and untreated is indicated by ∗p ≤ 0.05, and ∗∗p ≤ 0.01. […] Presented as average ± SD, with statistics performed using One-way ANOVA Šídák’s multiple comparisons test. ∗p ≤ 0.05

**Q.** For `CC[C@H](C)[C@H](NC(=O)[C@H](CC(C)C)NC(=O)[C@H](CC(=O)O)NC(=O)[C@H](Cc1ccc(O)cc1)NC(=O)[C@H](Cc1ccc(O)cc1)NC(=O)[C@H](CC(C)C)NC(=O)[C@H](C)NC(=O)[C@H](CCCNC(=N)N)NC(=O)[C@H](C)NC(=O)[C@@H](NC(=O)[C@@H](NC(=O)[C@H](CO)NC(=O)[C@H](CCC(=O)O)NC(=O)[C@@H](NC(=O)[C@H](CCCNC(=N)N)NC(=O)[C@@H](N)CCC(N)=O)[C@@H](C)O)[C@@H](C)CC)[C@@H](C)CC)C(=O)N[C@@H](CO)C(=O)O` [H105A] (H-QRTESIIARALYYDLIS-OH), which “ONL thickness” value [1] is on record?
**A.** Its value is “preservation of ONL thickness”.

**Q.** And the Outer segments (OS) thickness ([2]; replicate 1 of 9)?
**A.** The Outer segments (OS) thickness was 14.6 µm.

**Q.** What about the Outer segments (OS) thickness ([2]; replicate 2 of 9) of the same molecule?
**A.** The Outer segments (OS) thickness was 11.1 µm.

**Q.** What about the Outer segments (OS) thickness ([2]; replicate 3 of 9) of the same molecule?
**A.** Its Outer segments (OS) thickness is 16.1 µm.

**Q.** What about the Outer segments (OS) thickness ([2]; replicate 4 of 9) of the same molecule?
**A.** The Outer segments (OS) thickness was 15.5 µm.

**Q.** And the Outer segments (OS) thickness ([2]; replicate 5 of 9)?
**A.** The Outer segments (OS) thickness was 14.5 µm.

**Q.** And the Outer segments (OS) thickness ([2]; replicate 6 of 9)?
**A.** Its Outer segments (OS) thickness is 14.6 µm.

**Q.** What about the Outer segments (OS) thickness ([2]; replicate 7 of 9) of the same molecule?
**A.** The Outer segments (OS) thickness was 12.4 µm.

**Q.** What about the Outer segments (OS) thickness ([2]; replicate 8 of 9) of the same molecule?
**A.** Its Outer segments (OS) thickness is 20.7 µm.

**Q.** And the Outer segments (OS) thickness ([2]; replicate 9 of 9)?
**A.** The Outer segments (OS) thickness was 16.5 µm.
